In US20230293630A1, “Coronavirus T Cell Epitopes and Uses Thereof” (priority 2020, published 2023):
Read-outs that look alike come from different tables or passages of the source.

System: SARS-CoV-2-specific CD4+ T cells (OX40+CD137+) in PBMC
Type: cell-based, human
[1] = CD4+ T cell epitopes identified by AIM assay, share of donors responding
[2] = CD4+ T cell epitopes identified by AIM assay, sum of response per responding donor
[3] = CD4+ T cell epitopes identified by AIM assay, total response
[4] = CD4+ T cell epitopes identified by AIM assay, percent of tested donors responding
[5] = CD4+ T cell epitopes identified by AIM assay, total response summed over donors

Sequence	Frequency of response (%) [1] [%]	Magnitude by # of responding donors [2]	Sum of response [3]	Frequency of response (%) [4] [%]	Sum of response [5]	Frequency of response (%)	Magnitude by # of responding donors	Sum of response
SVLHSTQDLFLPFFS	15	305	609	–	–	–	–	–
ILLNKHIDAYKTFPP	42	483	2416	–	–	–	–	–
LPYGANKDGIIWVAT	14	418	835	–	–	–	–	–
QPYRVVVLSFELLHA	7	183	183	–	–	–	–	–
FGTTLDSKTQSLLIV	9	174	174	–	–	–	–	–
MAAYVDNSSLTIKKP	7	185	185	–	–	–	–	–
AIAMACLVGLMWLSY	8	151	151	–	–	–	–	–
VVIKVCEFQFCNDPF	9	2088	2088	–	–	–	–	–
LNTDHSSSSDNIALL	8	568	568	–	–	–	–	–
LLLLDRLNQLESKMS [SEQ ID NO 247]	21	581	1742	–	–	–	–	–
TLRVEAFEYYHTTDP	18	318	635	–	–	–	–	–
KEGQINDMILSLLSK	33	391	391	–	–	–	–	–
AAEASKKPRQKRTAT	23	179	537	–	–	–	–	–
AYSNNSIAIPTNFTI	–	112	–	8	112	–	–	–
YCIDGALLTKSSEYK	7	119	119	–	–	–	–	–
NLVRDLPQGFSALEP	27	607	1822	–	–	–	–	–

Sequence	Frequency of response (%) [1] [%]	Magnitude by # of responding donors [2]	Sum of response [3]	Frequency of response (%) [4] [%]	Sum of response [5]	Frequency of response (%)	Magnitude by # of responding donors	Sum of response
KNPLLYDANYFLCWH [SEQ ID NO 253]	–	112	–	7	112	–	–	–
LPDPSKPSKRSFIED	8	109	109	–	–	–	–	–
EIYQAGSTPCNGVEG	8	1121	1121	–	–	–	–	–
LIRQGTDYKHWPQIA	15	216	431	–	–	–	–	–
LQPELDSFKEELDKY	7	173	173	–	–	–	–	–
FHQECSLQSCTQHQP	18	413	826	–	–	–	–	–
SVLYNSASFSTFKCY	8	892	892	–	–	–	–	–
SGFAAYSRYRIGNYK	–	–	–	–	–	31	185	739
GVPINTNSSPDDQIG	8	108	108	–	–	–	–	–
QFAYANRNRFLYIIK	20	326	978	–	–	–	–	–
SFIEDLLFNKVTLAD	–	406	–	17	812	–	–	–
GGDGKMKDLSPRWYF	15	148	295	–	–	–	–	–
TVTLLPAADLDDFSK	7	648	648	–	–	–	–	–
YYRRATRRIRGGDGK	23	197	592	–	–	–	–	–
NHTKKWKYPQVNGLT	9	123	123	–	–	–	–	–
